Measured values published in the NIST ThermoML archive (doi:10.1016/j.jct.2012.09.012).
± gives the expanded uncertainty stated by the source.

Tests used:
[1] = molar heat capacity at constant pressure; conditions: 101 kPa, Liquid, Small sample (50 mg) DSC
[2] = Liquid, Vibrating tube method
[3] = molar heat capacity at constant pressure; xn = mol fraction of the nth substance listed; conditions: 101 kPa, Liquid, Small sample (50 mg) DSC, x2 = 0
[4] = xn = mol fraction of the nth substance listed; conditions: Liquid, Vibrating tube method, x2 = 0

Q: What does the source list for `C=C1CCC2CC1C2(C)C` (stereo not drawn) [β-pinene]?
A: molar heat capacity at constant pressure ([1]; 313.16 K): 249.31 ± 8.2 J/K/mol; molar heat capacity at constant pressure ([1]; 318.16 K): 252.03 ± 8.2 J/K/mol; molar heat capacity at constant pressure ([1]; 323.16 K): 254.76 ± 8.2 J/K/mol; molar heat capacity at constant pressure ([1]; 328.22 K): 257.48 ± 8.2 J/K/mol; molar heat capacity at constant pressure ([1]; 333.22 K): 260.21 ± 8.2 J/K/mol; molar heat capacity at constant pressure ([1]; 338.19 K): 262.93 ± 8.2 J/K/mol; molar heat capacity at constant pressure ([1]; 343.18 K): 265.66 ± 8.2 J/K/mol; molar heat capacity at constant pressure ([1]; 348.15 K): 268.38 ± 9.5 J/K/mol; molar heat capacity at constant pressure ([1]; 353.18 K): 271.11 ± 9.5 J/K/mol; molar heat capacity at constant pressure ([1]; 358.15 K): 273.83 ± 9.5 J/K/mol; molar heat capacity at constant pressure ([1]; 363.18 K): 277.92 ± 9.5 J/K/mol; molar heat capacity at constant pressure ([1]; 368.17 K): 280.64 ± 9.5 J/K/mol; molar heat capacity at constant pressure ([1]; 373.21 K): 283.37 ± 9.5 J/K/mol; molar heat capacity at constant pressure ([1]; 378.2 K): 284.73 ± 9.5 J/K/mol; molar heat capacity at constant pressure ([1]; 383.17 K): 287.45 ± 9.5 J/K/mol; molar heat capacity at constant pressure ([1]; 388.2 K): 290.18 ± 9.5 J/K/mol; molar heat capacity at constant pressure ([1]; 393.17 K): 292.9 ± 9.5 J/K/mol; molar heat capacity at constant pressure ([1]; 398.2 K): 295.63 ± 9.5 J/K/mol; molar heat capacity at constant pressure ([1]; 403.19 K): 299.71 ± 9.5 J/K/mol; molar heat capacity at constant pressure ([1]; 408.16 K): 302.44 ± 9.5 J/K/mol; molar heat capacity at constant pressure ([1]; 413.19 K): 303.8 ± 9.5 J/K/mol; molar heat capacity at constant pressure ([1]; 418.19 K): 306.53 ± 9.5 J/K/mol; mass density ([2]; 283.15 K, 20000 kPa): 891.3 ± 1 kg/m3; mass density ([2]; 283.15 K, 25000 kPa): 894.2 ± 1 kg/m3; mass density ([2]; 283.15 K, 30000 kPa): 897 ± 1.1 kg/m3; mass density ([2]; 283.15 K, 35000 kPa): 899.9 ± 1.1 kg/m3; mass density ([2]; 283.15 K, 40000 kPa): 902.6 ± 1.1 kg/m3; mass density ([2]; 298.15 K, 20000 kPa): 880.2 ± 1 kg/m3; mass density ([2]; 298.15 K, 25000 kPa): 883.3 ± 1 kg/m3; mass density ([2]; 298.15 K, 30000 kPa): 886.3 ± 1.1 kg/m3; mass density ([2]; 298.15 K, 35000 kPa): 889.3 ± 1.1 kg/m3; mass density ([2]; 298.15 K, 40000 kPa): 892.2 ± 1.1 kg/m3; mass density ([2]; 313.15 K, 20000 kPa): 869.3 ± 1 kg/m3; mass density ([2]; 313.15 K, 25000 kPa): 872.6 ± 1.1 kg/m3; mass density ([2]; 313.15 K, 30000 kPa): 875.7 ± 1.1 kg/m3; mass density ([2]; 313.15 K, 35000 kPa): 878.8 ± 1.1 kg/m3; mass density ([2]; 313.15 K, 40000 kPa): 882 ± 1.1 kg/m3; mass density ([2]; 328.15 K, 20000 kPa): 858.2 ± 1 kg/m3; mass density ([2]; 328.15 K, 25000 kPa): 861.7 ± 1.1 kg/m3; mass density ([2]; 328.15 K, 30000 kPa): 865.2 ± 1.1 kg/m3; mass density ([2]; 328.15 K, 35000 kPa): 868.7 ± 1.1 kg/m3; mass density ([2]; 328.15 K, 40000 kPa): 872.2 ± 1.1 kg/m3; mass density ([2]; 343.15 K, 20000 kPa): 847.7 ± 1.1 kg/m3; mass density ([2]; 343.15 K, 25000 kPa): 851.4 ± 1.1 kg/m3; mass density ([2]; 343.15 K, 30000 kPa): 855 ± 1.1 kg/m3; mass density ([2]; 343.15 K, 35000 kPa): 858.6 ± 1.1 kg/m3; mass density ([2]; 343.15 K, 40000 kPa): 862.1 ± 1.1 kg/m3; mass density ([2]; 358.15 K, 20000 kPa): 837 ± 1.1 kg/m3; mass density ([2]; 358.15 K, 25000 kPa): 840.9 ± 1.1 kg/m3; mass density ([2]; 358.15 K, 30000 kPa): 844.8 ± 1.1 kg/m3; mass density ([2]; 358.15 K, 35000 kPa): 848.7 ± 1.1 kg/m3; mass density ([2]; 358.15 K, 40000 kPa): 852.6 ± 1.1 kg/m3

Q: What does the source list for `C=C1CCC2CC1C2(C)C` (stereo not drawn) [β-pinene] + CC1=CC[C@H]2C[C@@H]1C2(C)C?
A: molar heat capacity at constant pressure ([3]; 313.16 K): 249.31 ± 8.2 J/K/mol; molar heat capacity at constant pressure ([3]; 318.16 K): 252.03 ± 8.2 J/K/mol; molar heat capacity at constant pressure ([3]; 323.16 K): 254.76 ± 8.2 J/K/mol; molar heat capacity at constant pressure ([3]; 328.22 K): 257.48 ± 8.2 J/K/mol; molar heat capacity at constant pressure ([3]; 333.22 K): 260.21 ± 8.2 J/K/mol; molar heat capacity at constant pressure ([3]; 338.19 K): 262.93 ± 8.2 J/K/mol; molar heat capacity at constant pressure ([3]; 343.18 K): 265.66 ± 8.2 J/K/mol; molar heat capacity at constant pressure ([3]; 348.15 K): 268.38 ± 9.5 J/K/mol; molar heat capacity at constant pressure ([3]; 353.18 K): 271.11 ± 9.5 J/K/mol; molar heat capacity at constant pressure ([3]; 358.15 K): 273.83 ± 9.5 J/K/mol; molar heat capacity at constant pressure ([3]; 363.18 K): 277.92 ± 9.5 J/K/mol; molar heat capacity at constant pressure ([3]; 368.17 K): 280.64 ± 9.5 J/K/mol; molar heat capacity at constant pressure ([3]; 373.21 K): 283.37 ± 9.5 J/K/mol; molar heat capacity at constant pressure ([3]; 378.2 K): 284.73 ± 9.5 J/K/mol; molar heat capacity at constant pressure ([3]; 383.17 K): 287.45 ± 9.5 J/K/mol; molar heat capacity at constant pressure ([3]; 388.2 K): 290.18 ± 9.5 J/K/mol; molar heat capacity at constant pressure ([3]; 393.17 K): 292.9 ± 9.5 J/K/mol; molar heat capacity at constant pressure ([3]; 398.2 K): 295.63 ± 9.5 J/K/mol; molar heat capacity at constant pressure ([3]; 403.19 K): 299.71 ± 9.5 J/K/mol; molar heat capacity at constant pressure ([3]; 408.16 K): 302.44 ± 9.5 J/K/mol; molar heat capacity at constant pressure ([3]; 413.19 K): 303.8 ± 9.5 J/K/mol; molar heat capacity at constant pressure ([3]; 418.19 K): 306.53 ± 9.5 J/K/mol; mass density ([4]; 283.15 K, 20000 kPa): 891.3 ± 1 kg/m3; mass density ([4]; 283.15 K, 25000 kPa): 894.2 ± 1 kg/m3; mass density ([4]; 283.15 K, 30000 kPa): 897 ± 1.1 kg/m3; mass density ([4]; 283.15 K, 35000 kPa): 899.9 ± 1.1 kg/m3; mass density ([4]; 283.15 K, 40000 kPa): 902.6 ± 1.1 kg/m3; mass density ([4]; 298.15 K, 20000 kPa): 880.2 ± 1 kg/m3; mass density ([4]; 298.15 K, 25000 kPa): 883.3 ± 1 kg/m3; mass density ([4]; 298.15 K, 30000 kPa): 886.3 ± 1.1 kg/m3; mass density ([4]; 298.15 K, 35000 kPa): 889.3 ± 1.1 kg/m3; mass density ([4]; 298.15 K, 40000 kPa): 892.2 ± 1.1 kg/m3; mass density ([4]; 313.15 K, 20000 kPa): 869.3 ± 1 kg/m3; mass density ([4]; 313.15 K, 25000 kPa): 872.6 ± 1.1 kg/m3; mass density ([4]; 313.15 K, 30000 kPa): 875.7 ± 1.1 kg/m3; mass density ([4]; 313.15 K, 35000 kPa): 878.8 ± 1.1 kg/m3; mass density ([4]; 313.15 K, 40000 kPa): 882 ± 1.1 kg/m3; mass density ([4]; 328.15 K, 20000 kPa): 858.2 ± 1 kg/m3; mass density ([4]; 328.15 K, 25000 kPa): 861.7 ± 1.1 kg/m3; mass density ([4]; 328.15 K, 30000 kPa): 865.2 ± 1.1 kg/m3; mass density ([4]; 328.15 K, 35000 kPa): 868.7 ± 1.1 kg/m3; mass density ([4]; 328.15 K, 40000 kPa): 872.2 ± 1.1 kg/m3; mass density ([4]; 343.15 K, 20000 kPa): 847.7 ± 1.1 kg/m3; mass density ([4]; 343.15 K, 25000 kPa): 851.4 ± 1.1 kg/m3; mass density ([4]; 343.15 K, 30000 kPa): 855 ± 1.1 kg/m3; mass density ([4]; 343.15 K, 35000 kPa): 858.6 ± 1.1 kg/m3; mass density ([4]; 343.15 K, 40000 kPa): 862.1 ± 1.1 kg/m3; mass density ([4]; 358.15 K, 20000 kPa): 837 ± 1.1 kg/m3; mass density ([4]; 358.15 K, 25000 kPa): 840.9 ± 1.1 kg/m3; mass density ([4]; 358.15 K, 30000 kPa): 844.8 ± 1.1 kg/m3; mass density ([4]; 358.15 K, 35000 kPa): 848.7 ± 1.1 kg/m3; mass density ([4]; 358.15 K, 40000 kPa): 852.6 ± 1.1 kg/m3
